Data reported in article PMC12118671, “Increased imaging ligand hydrophilicity and improved pharmacokinetic properties provides enhanced in vivo targeting of fibroblast activation protein” (npj Imaging, 2024).
Several values for one entry are separate records, joined by “and”; a condition that tells them apart may be missing. Equal entries are not always repeated.

Key:
[1] = Plasma pharmacokinetics after IV bolus, non-compartmental analysis; assay type: in vivo, mouse; details: for AUC(0-inf) / C0 / clearance / half-life / Vd: mouse, plasma, healthy male DBA1/J mice, Mean ± SEM; for AUC(0-inf) / C0: IV bolus 2 nmol (FAPI dosed 51 nmol, dose normalized to 2 nmol); for clearance / half-life / Vd: IV bolus; for half-life: read-out: Terminal t1/2 (converted); for Vd: read-out: VD,ss; for clearance category (Fig. 1): words in Fig. 1
Description: FAPI was dosed IV (51 nmol) via the tail vein to maintain concentrations above LLOQ for PK analysis while all other FAPI conjugates were dosed IV (1 or 2 nmol in 150 µL PBS) via the tail vein. […] Whole blood was diluted with 10 mM EDTA in PBS and spun down to isolate plasma. Fluorescent ligand concentrations were quantified using a LI-COR Odyssey CLx scanner (Lincoln, NE) using a dilution series of fluorescent standards as previously reported. Non-compartmental analysis was conducted using the concentration vs. time profiles for each probe with MATLAB. The predicted initial concentration, terminal phase half-life, exposure (AUC0-inf), AUC extrapolation percentage, volume of distribution at steady state, and terminal clearance were reported for each dosed probe.

[2] = target: T1, cell surface FAP (HEK293-hFAP cells) (Homo sapiens, UniProt Q12884); assay: Competition assay against FAPI-ALB-AF647 for indirect KD; assay type: binding; details: competition with FAPI-ALB-AF647, 60 nM each, 30 min on ice, read-out: KD (nM), indirectly calculated
T1 construct: expressed in transfected cells; host or cells: HEK293 (ATCC, CRL-1573), Lipofectamine 3000 transfection, puromycin selection
T1 sequence (Q12884 1-760): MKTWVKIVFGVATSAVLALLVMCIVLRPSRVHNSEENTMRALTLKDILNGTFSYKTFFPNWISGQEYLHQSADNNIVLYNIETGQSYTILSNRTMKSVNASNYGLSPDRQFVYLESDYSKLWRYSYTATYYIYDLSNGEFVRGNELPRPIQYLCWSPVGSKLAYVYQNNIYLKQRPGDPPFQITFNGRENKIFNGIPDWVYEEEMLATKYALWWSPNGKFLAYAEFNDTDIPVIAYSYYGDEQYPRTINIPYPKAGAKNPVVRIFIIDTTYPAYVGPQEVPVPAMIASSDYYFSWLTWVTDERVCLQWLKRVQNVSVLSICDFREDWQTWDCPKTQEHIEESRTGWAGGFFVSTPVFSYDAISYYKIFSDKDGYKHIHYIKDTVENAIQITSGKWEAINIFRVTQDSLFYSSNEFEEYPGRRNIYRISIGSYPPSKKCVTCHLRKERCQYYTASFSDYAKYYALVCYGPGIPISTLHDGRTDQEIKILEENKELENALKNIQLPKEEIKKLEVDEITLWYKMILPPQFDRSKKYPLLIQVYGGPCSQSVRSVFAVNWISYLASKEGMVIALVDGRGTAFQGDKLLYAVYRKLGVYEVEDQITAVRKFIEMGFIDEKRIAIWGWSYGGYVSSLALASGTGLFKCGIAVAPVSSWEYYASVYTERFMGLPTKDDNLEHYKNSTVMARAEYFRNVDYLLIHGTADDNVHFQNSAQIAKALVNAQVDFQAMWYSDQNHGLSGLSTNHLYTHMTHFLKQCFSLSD
Description: Both the FAPI-ALB-AF647 and the unlabeled competitor were incubated at 60 nM each on HEK293-hFAP cells for 30 min on ice to approach steady-state binding. The competition assay cells were pelleted and washed twice with PBS w/ 0.1% BSA before being analyzed using a BD Fortessa flow cytometer. The loss in signal from the competition incubation was then compared to the signal of the FAPI-ALB-AF647 incubation alone to determine the relative binding affinity.

[3] = target: T2, FAP (Mus musculus, UniProt P97321); assay: In vivo near-infrared imaging of paws with competitive blocking, CIA model
T2 construct: Increased FAP expression with increasing disease severity in CIA mice as assessed with IHC; from tissue; host or cells: inflamed paws of live DBA/1J mice with collagen-induced arthritis
T2 sequence (P97321 1-761): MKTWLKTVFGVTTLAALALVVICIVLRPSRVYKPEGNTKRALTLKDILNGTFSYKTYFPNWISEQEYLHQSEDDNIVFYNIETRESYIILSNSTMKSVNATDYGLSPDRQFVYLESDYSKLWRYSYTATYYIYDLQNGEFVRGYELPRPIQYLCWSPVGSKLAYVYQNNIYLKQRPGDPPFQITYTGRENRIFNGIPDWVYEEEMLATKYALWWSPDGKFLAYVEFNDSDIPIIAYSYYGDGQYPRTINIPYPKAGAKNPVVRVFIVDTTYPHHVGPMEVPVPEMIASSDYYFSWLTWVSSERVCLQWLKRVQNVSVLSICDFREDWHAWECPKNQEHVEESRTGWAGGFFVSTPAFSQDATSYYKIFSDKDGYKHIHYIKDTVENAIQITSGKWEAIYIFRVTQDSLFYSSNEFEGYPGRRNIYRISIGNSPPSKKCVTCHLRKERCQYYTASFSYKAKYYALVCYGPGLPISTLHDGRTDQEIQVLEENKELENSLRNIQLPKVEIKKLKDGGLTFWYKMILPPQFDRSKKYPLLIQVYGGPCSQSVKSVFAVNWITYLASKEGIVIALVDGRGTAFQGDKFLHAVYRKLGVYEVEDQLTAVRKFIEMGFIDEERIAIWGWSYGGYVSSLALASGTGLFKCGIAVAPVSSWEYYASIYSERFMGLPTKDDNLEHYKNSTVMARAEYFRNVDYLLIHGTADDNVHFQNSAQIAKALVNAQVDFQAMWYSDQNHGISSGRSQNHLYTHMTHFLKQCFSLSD

[4] = tested on: HEK293-hFAP cells; assay: Receptor net internalization assay, flow cytometry with Trypan Blue quench; assay type: cell-based, human; details: endogenous and overexpressing cells together
Description: The receptor internalization assay was adapted from a previously published method for peptides[61],[63]. Briefly, HEK293-hFAP cells were sub-cultured into 6-well plates and allowed to adhere for 12–16 h. After washing cells with media, 100 nM of FAPI-AF488 in media was added to each well. Cells were incubated at 37 °C in the continuous presence of FAPI-AF488 and allowed to internalize. At each time point, plates were chilled, wells washed twice with PBS with 0.1% BSA, and cells lifted following Accutase incubation. Lastly, cells were resuspended in PBS or a dilution of 0.4% Trypan Blue before being analyzed via flow cytometry to differentiate between internal and surface fluorescence. The surface fluorescence was determined as (unquenched MFU – quenched MFU)/ɛ, where ɛ is the quenching efficiency determined by comparing the quenched and unquenched signals of cells that had been labeled briefly on ice to prevent internalization. The internal fluorescence was then calculated as total MFU – surface MFU. Non-specific uptake of small molecules was measured using cells where FAPI-AF488 was competed out with 100-fold excess concentration of the unlabeled FAPI. The corrected internal MFU values were plotted against the surface fluorescence integral; the slope of the linear curve is the internalization rate ke[64]. The same procedure was followed for the endogenous RAFLS cells.

[5] = Plasma protein binding by equilibrium dialysis; assay type: in vitro ADME; details: CD1 mouse plasma, 1 µM, equilibrium dialysis 4 h at 37 °C
Description: CD1 mouse plasma protein binding was assessed via equilibrium dialysis. Dry membranes (HT Dialysis, HTD96b) were soaked in DI water for 15 min and then in 30% ethanol for another 15 min. After washing the membranes 3 times with DI water, the membranes were placed in dialysis buffer (potassium phosphate, 50 mM, pH 7.4) until the assay began. At the beginning of the assay, the membranes were placed in the dialysis block and 100 µL of buffer was added to both sides of the membrane to maintain membrane hydration/integrity. Each compound was diluted to 1 µM using plasma and then 100 µL of this mixture was added to one side of the membrane while 100 µl of […] was placed in opposite well. The plate was then sealed and placed on an orbital shaker (150 rpm) in an incubator at 37 °C for 4 h. Afterwards, samples were taken from the donor and acceptor side of the well, vortexed, centrifuged at 3300 rpm for 15 min at 4 °C and then analyzed for compound content using LC/MS.

[6] = tested on: FAP; design: method as in PMID 29626119; details: read-out: EC50 through competition assays; cited from earlier work

Row | Structure (SMILES) | AUC(0-inf) [1] [µM·h] | C0 [1] [nM] | clearance [1] [mL/min] | half-life [1] [min] | Vd [1] [L] | clearance category (Fig. 1) [1] | Kd [2] [nM] | mean fluorescence intensity in healthy paws ([3]; healthy mice, 5 h, 1 nmol IV, no block) | internalization half-life (t1/2) [4] [min] | % Protein Bound ± SD [5] | effect of co-dosed molar excess blocker on FAPI-800CW uptake in inflamed paws ([3]; CIA mice, 5 h, 50-fold molar excess) | EC50 [6] [nM] | mean fluorescence intensity of FAPI-ALB-800CW in inflamed paws when blocked by this compound ([3]; CIA mice, 24 h, 1 nmol IV probe, blocker co-administered at 50-fold molar excess)
1 | CC1(C)C(/C=C/C2=C(Oc3ccc(S(=O)(=O)O)cc3)C(=C/C=C3/N(CCCCS(=O)(=O)O)c4ccc(S(=O)(=O)O)cc4C3(C)C)/CCC2)=[N+](CCCCCC(=O)N2CCN(CCCOc3ccc4nccc(C(=O)NCC(=O)N5CC(F)(F)C[C@H]5C#N)c4c3)CC2)c2ccc(S(=O)(=O)O)cc21.O=C([O-])C(F)(F)F [FAPI-800CW] | 0.525 ± 0.025 | 1250 ± 52 | 0.0638 | 60 ± 6 | 0.0039 ± 0.0002 | Moderate clearance | 8 | 0.026 ± 0.007 | – | – | – | – | –
2 | N#C[C@@H]1CC(F)(F)CN1C(=O)CNC(=O)c1ccnc2ccc(OCCCN3CCNCC3)cc12 [FAPI] | 0.014 ± 0.004 | 50 ± 7 | 3.9 | 30 ± 6 | 0.0627 ± 0.0184 | Fast clearance | 6 | – | 240 to 480 | 44.7% and 44.7 ± 3.1% | did not provide a similar reduction | – | –
3 | N#C[C@@H]1CC(F)(F)CN1C(=O)CNC(=O)c1ccnc2ccc(OCCCN3CCN(C(=O)CN4CCN(CC(=O)O)CCN(CC(=O)O)CCN(CC(=O)O)CC4)CC3)cc12 [FAPI-04] | – | – | – | – | – | – | – | – | – | – | – | 6.5 | –
4 | N#CC1CC(F)(F)CN1C(=O)CNC(=O)c1ccnc2ccc(OCCCN3CCN(C(=O)C(N)CCC(=O)NCCOCCOCC(=O)NCc4ccc(S(=O)(=O)NC(=O)c5ccc(-c6ccc(C(F)(F)F)cc6)cc5)cc4)CC3)cc12 (stereo not shown) [FAPI-ALB] | 0.088 ± 0.018 | 189 ± 52 | 0.42 | 54 | 0.0145 ± 0.0084 | Moderate clearance | 3.6 | – | – | 98.9 ± 0.2% | – | – | 0.07 ± 0.01
